Assay results from ChEMBL document CHEMBL3785051, “Recent progress on third generation covalent EGFR inhibitors” (Bioorg Med Chem Lett, 2016).

Assays:
[1] = target: Epidermal growth factor receptor (Homo sapiens, UniProt P00533, L858R/T790M); assay: Inhibition of EGFR T790M/L858R double mutant phosphorylation in human H1975 cells preincubated for 2 hrs by ELISA; format: cell-based
[2] = target: Epidermal growth factor receptor (Homo sapiens, UniProt P00533); assay: Inhibition of wild type EGFR phosphorylation in human LoVo cells preincubated for 2 hrs followed by EGF stimulation measured after 30 mins by ELISA; format: cell-based
Sequence of Epidermal growth factor receptor (Homo sapiens, UniProt P00533) (P00533 whole entry): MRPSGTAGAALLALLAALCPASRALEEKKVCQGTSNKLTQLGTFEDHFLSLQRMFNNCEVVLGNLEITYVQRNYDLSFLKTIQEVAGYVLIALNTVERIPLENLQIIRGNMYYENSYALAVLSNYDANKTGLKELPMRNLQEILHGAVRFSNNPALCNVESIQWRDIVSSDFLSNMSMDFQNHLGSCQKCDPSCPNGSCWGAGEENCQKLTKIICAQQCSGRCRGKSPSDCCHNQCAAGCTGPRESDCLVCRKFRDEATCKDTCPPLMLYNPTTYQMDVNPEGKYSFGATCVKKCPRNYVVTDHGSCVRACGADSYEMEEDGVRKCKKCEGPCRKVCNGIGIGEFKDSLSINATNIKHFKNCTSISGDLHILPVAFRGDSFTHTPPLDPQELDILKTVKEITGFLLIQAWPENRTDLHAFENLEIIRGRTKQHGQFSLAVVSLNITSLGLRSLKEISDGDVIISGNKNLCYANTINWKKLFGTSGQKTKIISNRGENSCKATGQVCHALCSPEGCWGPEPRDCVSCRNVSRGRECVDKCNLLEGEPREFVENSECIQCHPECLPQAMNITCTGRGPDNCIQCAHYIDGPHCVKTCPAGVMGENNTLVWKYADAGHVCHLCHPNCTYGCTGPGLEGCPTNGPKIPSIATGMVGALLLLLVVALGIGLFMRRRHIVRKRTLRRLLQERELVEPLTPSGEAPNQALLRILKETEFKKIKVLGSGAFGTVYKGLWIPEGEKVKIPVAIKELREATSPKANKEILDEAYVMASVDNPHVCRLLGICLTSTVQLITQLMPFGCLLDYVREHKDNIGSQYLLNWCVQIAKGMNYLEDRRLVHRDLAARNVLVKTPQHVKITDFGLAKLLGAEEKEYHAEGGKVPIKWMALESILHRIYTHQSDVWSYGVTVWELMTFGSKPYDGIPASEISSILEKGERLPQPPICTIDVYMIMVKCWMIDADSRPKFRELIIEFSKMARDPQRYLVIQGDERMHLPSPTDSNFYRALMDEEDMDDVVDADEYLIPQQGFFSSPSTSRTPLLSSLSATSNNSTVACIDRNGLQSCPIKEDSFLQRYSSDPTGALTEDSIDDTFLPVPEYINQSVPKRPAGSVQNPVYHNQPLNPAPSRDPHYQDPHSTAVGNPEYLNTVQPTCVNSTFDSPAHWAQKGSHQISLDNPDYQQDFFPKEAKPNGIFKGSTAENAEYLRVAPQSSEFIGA

[3] = target: Epidermal growth factor receptor (Homo sapiens, UniProt P00533, EX19DEL); assay: Inhibition of EGFR Del ex19 mutant phosphorylation in human PC9 cells preincubated for 2 hrs by ELISA; format: cell-based, PC-9
Sequence of Epidermal growth factor receptor (Homo sapiens, UniProt P00533, EX19DEL) (P00533 whole entry, looked up, stated change not applied): as the sequence (P00533 whole entry) above

[4] = Apparent half life in patient with EGFR TKI-resistant NSCLC at 20 to 240 mg, po qd; format: ADME, organism-based; conditions: human, in vivo, read-out: t1/2(app) (converted)
[5] = Clearance in patient with EGFR TKI-resistant NSCLC at 20 to 240 mg, po qd; format: ADME, organism-based; conditions: human, in vivo
[6] = Half life in mouse at 25 mg/kg, po; format: ADME, organism-based; conditions: in vivo
[7] = Antiproliferative activity against EGFR Del 19 mutant expressing human HCC827 cells assessed as cell viability after 72 hrs by CellTiterGlo analysis; format: functional; conditions: HCC827, 72 h
[8] = Antiproliferative activity against EGFR Del ex19/T790M mutant expressing human HCC827EPR cells assessed as cell viability after 72 hrs by CellTiterGlo analysis; format: functional
[9] = Antiproliferative activity against EGFR Del ex19 mutant expressing human PC9 cells assessed as cell viability after 72 hrs by CellTiterGlo analysis; format: functional; conditions: PC-9, 72 h
A-431 [10] = assay: Antitumor activity against human A431 cells xenografted in NCR Nu/Nu mouse assessed as tumor growth inhibition at 50 mg/kg, ip administered as bid; format: functional; conditions: A-431, ip, read-out: TGI
A-431 [11] = assay: Antiproliferative activity against wild type EGFR expressing human A431 cells assessed as cell viability after 72 hrs by CellTiterGlo analysis; format: functional; conditions: A-431, 72 h
[12] = Oral bioavailability in Nu/Nu mouse at 20 mg/ kg; format: ADME, organism-based; conditions: in vivo
NCI-H1975 = assay: Antiproliferative activity against EGFR L858R / T790M double mutant expressing human NCI-H1975 cells assessed as cell viability after 72 hrs by CellTiterGlo analysis; format: functional; conditions: NCI-H1975, 72 h

Sequence of Epidermal growth factor receptor (Homo sapiens, UniProt P00533, L858R/T790M) (P00533 25-1210 T790M/L858R limits assumed): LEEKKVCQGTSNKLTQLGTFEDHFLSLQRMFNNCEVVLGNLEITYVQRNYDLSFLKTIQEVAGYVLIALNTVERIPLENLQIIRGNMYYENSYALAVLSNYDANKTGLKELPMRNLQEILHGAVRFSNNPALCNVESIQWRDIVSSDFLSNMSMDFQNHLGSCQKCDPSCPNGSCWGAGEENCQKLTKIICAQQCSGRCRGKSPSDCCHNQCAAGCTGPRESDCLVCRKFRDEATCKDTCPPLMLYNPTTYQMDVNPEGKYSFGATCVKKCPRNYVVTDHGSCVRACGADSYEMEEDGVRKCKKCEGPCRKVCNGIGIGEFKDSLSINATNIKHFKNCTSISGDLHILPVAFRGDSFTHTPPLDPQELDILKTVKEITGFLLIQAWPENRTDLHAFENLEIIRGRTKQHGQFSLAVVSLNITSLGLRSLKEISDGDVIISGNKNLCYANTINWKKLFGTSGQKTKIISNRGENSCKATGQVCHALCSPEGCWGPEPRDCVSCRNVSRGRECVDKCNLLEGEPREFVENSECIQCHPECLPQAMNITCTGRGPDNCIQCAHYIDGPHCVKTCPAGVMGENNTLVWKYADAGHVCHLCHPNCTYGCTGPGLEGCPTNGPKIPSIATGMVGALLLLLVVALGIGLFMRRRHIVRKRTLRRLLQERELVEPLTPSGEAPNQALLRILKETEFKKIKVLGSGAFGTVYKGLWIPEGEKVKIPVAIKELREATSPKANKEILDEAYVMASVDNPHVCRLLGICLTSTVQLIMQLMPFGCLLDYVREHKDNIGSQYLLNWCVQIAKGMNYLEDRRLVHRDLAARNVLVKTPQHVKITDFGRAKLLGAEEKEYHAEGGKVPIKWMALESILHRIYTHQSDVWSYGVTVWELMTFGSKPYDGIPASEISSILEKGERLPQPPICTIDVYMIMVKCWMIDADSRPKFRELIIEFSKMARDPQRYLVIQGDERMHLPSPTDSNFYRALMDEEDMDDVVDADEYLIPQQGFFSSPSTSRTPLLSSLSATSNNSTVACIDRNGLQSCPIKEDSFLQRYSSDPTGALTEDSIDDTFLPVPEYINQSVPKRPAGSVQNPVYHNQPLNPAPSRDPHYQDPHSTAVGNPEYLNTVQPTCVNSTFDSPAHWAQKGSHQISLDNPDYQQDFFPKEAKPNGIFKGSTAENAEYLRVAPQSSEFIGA

## C=CC(=O)Nc1cc(Nc2nccc(-c3c[nH]c4ccccc34)n2)c(OC)cc1N(C)CCN(C)C
[1]
  IC50: 2 nM
[2]
  IC50: 33 nM
[3]
  IC50: 2 nM

## C=CC(=O)Nc1cc(Nc2nccc(-c3cn(C)c4ccccc34)n2)c(OC)cc1N(C)CCNC
[1]
  IC50: 45 nM
[2]
  IC50: 786 nM
[3]
  IC50: 26 nM

## C=CC(=O)Nc1cc(Nc2nccc(-c3cn(C)c4ccccc34)n2)c(OC)cc1N(C)CCN(C)C [OSIMERTINIB]
[4]
  half-life: 55 h
[5]
  CL/F: 237 mL/min
[6]
  half-life: 3 h

## C=CC(=O)Nc1cccc(Nc2nc(Nc3ccc(N4CCN(C(C)=O)CC4)cc3OC)ncc2C(F)(F)F)c1 [ROCILETINIB]
[7]
  GI50: 7 nM
[8]
  GI50: 7 nM
[9]
  GI50: 7 nM
A-431 [10]
  inhibition in vivo at 50 mg/kg: 36%
A-431 [11]
  GI50: 547 nM
[12]
  bioavailability: 65%
NCI-H1975
  GI50: 7 nM
